Read-outs that look alike come from different tables or passages of the source.
How the values were obtained:
[1] = target: T1, rat 5-HT2A receptor tagged with EGFP (Rattus norvegicus, UniProt P14842); assay: Internalization of GFP-tagged 5-HT2A receptor in transiently transfected, differentiated N1E-115 neuronal cells, confocal fluorescence microscopy; type: cell-based; conditions: drug applied for 10 mins, cycloheximide present
T1 construct: tagged at the C-terminus of the full-length rat 5-HT2A receptor (SR2-GFP); expressed in transfected cells; transiently transfected, differentiated N1E-115 cells (A2)

[2] = values from Goodman & Gilman's (Baldessarini and Tarazi 2001) or other published medical sources, cited from earlier work
[3] = target: T1, rat 5-HT2A receptor tagged with EGFP; assay: Internalization of GFP-tagged 5-HT2A receptor in SB1 cells (HEK293 stable line), confocal fluorescence microscopy; type: cell-based; conditions: drug applied for 10 mins, cycloheximide present

T1 sequence (P14842 whole entry): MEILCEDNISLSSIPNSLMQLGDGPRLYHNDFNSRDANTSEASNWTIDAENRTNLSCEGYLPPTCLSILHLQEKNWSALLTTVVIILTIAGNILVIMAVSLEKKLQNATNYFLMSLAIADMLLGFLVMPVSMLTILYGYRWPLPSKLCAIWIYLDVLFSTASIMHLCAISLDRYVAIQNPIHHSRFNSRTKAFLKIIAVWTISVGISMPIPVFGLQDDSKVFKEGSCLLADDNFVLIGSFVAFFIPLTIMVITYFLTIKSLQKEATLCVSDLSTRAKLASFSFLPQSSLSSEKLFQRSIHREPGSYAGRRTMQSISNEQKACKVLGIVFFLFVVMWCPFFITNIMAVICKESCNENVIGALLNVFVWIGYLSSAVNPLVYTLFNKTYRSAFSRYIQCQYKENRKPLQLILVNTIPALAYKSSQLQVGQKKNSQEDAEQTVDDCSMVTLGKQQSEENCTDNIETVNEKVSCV

Receptor internalization N1E-115 cells (pattern of internalization) [1]	Receptor internalization SB1 cells (pattern of internalization) [3]	Compound	Extrapyramidal side effects (EPS) [2]	other results
–	–	CN1CCN(C2=Nc3cc(Cl)ccc3Nc3ccccc32)CC1 [Clozapine]	Very low	Extrapyramidal side effects (EPS) ([2]; listed as clozapine): negligible
–	–	OCCN1CCN(CCCN2c3ccccc3Sc3ccc(C(F)(F)F)cc32)CC1 [Fluphenazine]	Very high	Extrapyramidal side effects (EPS) ([2]; listed as fluphenazine): severe
–	–	O=C(CCCN1CCC(O)(c2ccc(Cl)cc2)CC1)c1ccc(F)cc1 [Haloperidol]	Very high	Extrapyramidal side effects (EPS) ([2]; listed as haloperidol): severe
–	–	CN1CCN(C2=Nc3ccccc3Oc3ccc(Cl)cc32)CC1 [Loxapine]	Moderate	–
–	–	Cc1cc2c(s1)Nc1ccccc1N=C2N1CCN(C)CC1 [Olanzapine]	Very low	Extrapyramidal side effects (EPS) ([2]; listed as olanzapine): negligible
–	–	OCCOCCN1CCN(C2=Nc3ccccc3Sc3ccccc32)CC1 [Quitapine]	Very low	–
–	–	Cc1nc2n(c(=O)c1CCN1CCC(c3noc4cc(F)ccc34)CC1)CCCC2 [Risperidone]	Moderate	–
Type B	Type B	O=C1Cc2cc(CCN3CCN(c4nsc5ccccc45)CC3)c(Cl)cc2N1 [Ziprasidone]	Moderate	–
Type B	Type C	OCCN1CCN(CC/C=C2/c3ccccc3Sc3ccc(Cl)cc32)CC1 [Zuclopenthixol]	Moderate	–

Compound	Receptor internalization N1E-115 cells (pattern of internalization) [1]	Receptor internalization SB1 cells (pattern of internalization) [3]	Extrapyramidal side effects (EPS) [2]	other results
O=C1CCc2ccc(OCCCCN3CCN(c4cccc(Cl)c4Cl)CC3)cc2N1 [Aripiprazole]	Type A	Type A	Very low	–

Reference: US7524639B2, “Assay for screening antipsychotic drugs” (priority 2003, dated 2009)
